Data: patent US11142530B2, “Deep-sea fungus-derived anthraquinone compound and use thereof in preparing anti-allergic drugs” (Third Institute of Oceanography, Ministry of Natural …, priority 2019, dated 2021)
Like-named read-outs stand apart in the source and are kept apart here. One block for each compound: values may come before it.

Tested on: RBL-2H3 cells
Assay: IgE-mediated RBL-2H3 cell degranulation model (β-hexosaminidase release), in vitro anti-allergic activity test
Type: cell-based
Settings: for Degranulation efficiency (%): RBL-2H3 cells, anti-DNP-IgE sensitized, DNP-BSA stimulated
Source text: Currently available mast cell lines are not suitable for in vitro subculturing, and thus it is difficult to obtain a large number of homogeneous cells for experimental research. The RBL-2H3 cell line is similar to mast cells in cell structure and degranulation mechanism, and more importantly, it is possible to realize a stable subculturing of the line. Thus, the RBL-2H3 cell line is usually used as an alternative model of mast cells in the studies on mast cell functions and further researches of allergic diseases.
In the present embodiment, an IgE-mediated RBL-2H3 cell model was employed to measure the degranulation efficiency of sensitized cells, followed by a calculation to obtain the inhibitory of the compound against the cell degranulation and to further obtain the anti-allergic activity of the compound.
This embodiment was conducted with the following four groups:
(1) negative control group (non-activated group);
(2) blank control group (DNP-BSA-activated group);
(3) positive control group (loratadine group); and
(4) compound group (the compound obtained in step (5) in Embodiment 1).
This embodiment was conducted as follows:
(1) Sensitizing the cells: The RBL-2H3 cells were collected with trypsinization, and added into 96-well plates, 100 μL in each well, followed by the addition of anti-DNP-IgE to a final concentration of 1 μg/mL to sensitize the cells, and incubated in an incubator overnight (37° C., 5% CO2).
(2) Pre-protection of the cells: In the negative control group, 5, μL of PBS and 95 μL of Tyrode's buffer solution were added to each sample. In the blank control group, 5 μL of DNP-BSA and 95 μL of Tyrode's buffer solution were added to each sample. In the positive control group, 5 μL of loratadine (of various concentrations) and 95 μL of Tyrode's buffer solution were added to each sample. In the compound group, 5 μL of the compound solution (in PBS, with a final concentration of 1.25, 0. 625, 0.3125, 0.15625, 0.078125, or 0.0390625 μg/mL) and 95 μL of Tyrode's buffer solution were added to each sample. After the addition of above reagents, 95 μL of the cells were then added to culture plates, and incubated for 1 hour.
(3) Stimulating the cells: In the negative control group, 5 μL of PBS was added to each sample. In the other three groups, 5 μL of DNP-BSA was added to a final concentration of 1 μg/mL to stimulate the RBL-2H3 cells, and incubated for 1 hour.
(4) Disintegration of the cells: The culture supernatants were collected, and then the Tyrode's buffer solution (containing 0.1% of Triton X-100) was added to the culture plates to disintegrate the cells so as to obtain lysate solutions.
(5) β-hexosaminidase activity measurement: The supernatants and the lysate solutions were added to 96-well plates for fluorescent assays, 25 μL in each well, followed by the addition of 100 μL of 1.2 mM 4-methylumbelliferyl-N-acetyl-β-d-glucosaminide to allow reaction at 37° C. for 30 minutes. Then the fluorescence (excitation wavelength: 360 nm, emission wavelength: 450 nm) of the solution in each well was measured using a microplate reader.
(6) Calculation of degranulation efficiency:
Degranulation efficiency was calculated through the following expression:
wherein, FS represent the fluorescence of supernatant, and FL represents the fluorescence of lysate solution.
(7) Calculation of inhibitory rate on allergy
Inhibitory rate was calculated with the following expression:
wherein DEB represents the degranulation efficiency of blank control group, DEC represents the degranulation efficiency of compound group and DEN represents the degranulation efficiency of negative control group.

[1] = Rattus norvegicus, RBL-2H3, read-out: Inhibitory rate (%)

SMILES: COc1cc(O)cc2c1C(=O)c1c(cc3c(c1O)C1C=COC1O3)C2=O (stereo not drawn) [Compound]
inhibitory effect on mast cell degranulation (IgE-mediated RBL-2H3 cell model, result in words): strong inhibitory effect
Degranulation efficiency (%) (compound 0.0390625 μg/mL): 52.86%
Degranulation efficiency (%) (compound 0.078125 μg/mL): 48.53%
Degranulation efficiency (%) (compound 0.15625 μg/mL): 38.46%
Degranulation efficiency (%) (compound 0.3125 μg/mL): 35.61%
Degranulation efficiency (%) (compound 0.625 μg/mL): 24.46%
Degranulation efficiency (%) (compound 1.25 μg/mL): 14.29%
IC50 (Rattus norvegicus, RBL-2H3): 1.87 µM
inhibition at 0.0390625 µg/mL [1]: -15.2%
inhibition at 0.078125 µg/mL [1]: -3.38%
inhibition at 0.15625 µg/mL [1]: 24.2%
inhibition at 0.3125 µg/mL [1]: 32.1%
inhibition at 0.625 µg/mL [1]: 62.7%
inhibition at 1.25 µg/mL [1]: 90.6%

IC50 (Rattus norvegicus, concentration of the compound when the inhibitory rate is 50%, RBL-2H3 degranulation, read-out: IC50): 91.6 µM
SMILES: CCOC(=O)N1CCC(=C2c3ccc(Cl)cc3CCc3cccnc32)CC1 [loratadine, reference compound]
